The values that follow come from US20220296573A1, “NOVEL COMPOUNDS AND PHARMACEUTICAL COMPOSITIONS THEREOF FOR THE TREATMENT OF INFLAMMATORY DISORDERS” (Galapagos NV, priority 2019, published 2022).

A short description of one data set: Thermodynamic solubility. It is filed as physicochemical. The following applies: for solubility thermodynamic at 24 h: 37 °C, thermodynamic from solid. As for the experimental part:
In a 8 mL glass vial, 1-2 mg of dry matter of compound were added and stirred with the suitable buffers (Fed State Simulated Intestine Fluid, FeSSIF, or Fasted State Simulated Intestine Fluid, FaSSIF, or Fasted State Simulated Gastric Fluid, FaSSGF, or phosphate buffer pH 7.4) for 24 h at r.t. (for the buffer pH 7.4) or 37° C. (for the GI fluids). The concentration of the mixture was 1 mg/mL.
A volume of 1000 μL were sampled, centrifuged for 10 min at 10 000 rpm and 500 μL of the supernatant were filtered on captiva plate. The samples are diluted in duplicates in DMSO (F100 and F10). Then, a final dilution (F100) in 80/20 H2O/MeCN containing the internal standard (warfarin) was used for LCMS-MS analysis.
A standard curve was made starting from a 40,000 ng/mL stock in DMSO, freshly prepared from dry matter. Then, successive concentrations at 15,000, 11,000, 6,000, 2,500, 1,000, 375, 150 and 75 ng/mL in DMSO were prepared.
Three quality control samples were made: one of 10,000, 1,500 and 200 ng/mL in DMSO, also starting from the DMSO working stock solution at 40,000 ng/mL.
The standard curve and quality controls were diluted a F100 in 80/20 H2O/MeCN (with internal standard) and analyzed on LC/MS-MS (API4000 or API5500).
The samples were analyzed on LC-MS with a flow rate of 0.6 mL/min. The mobile phase A was 0.1% formic acid in water and the mobile phase B was 0.1% formic acid in 90% MeCN and 10% of water. The sample was run under positive or negative ion spray on Pursuit C18—5 μm (2.0×20 mm) column, from Agilent.
The ratio analyte/internal standard peaks areas of the standard curve were plotted in a graph and a linear or polynomial of the second order equation was used to calculate the unknown concentrations of the test compound.
Solubility values were reported in μM and g/mL.

Data set [1] deals with CL097 triggered TNFα release in human whole blood. Nature of the data set: Ex vivo human TNFα release inhibition (whole blood assay). It is filed as cell-based. The following applies: CL097 2 μg/mL, 3 h 30 min. An excerpt:
The aim of the assay is to evaluate the activity of compounds of the invention on the activated TLR/IRAK-4 pathway in an ex vivo human whole blood setting. Toll-like receptors (TLRs) are pattern recognition receptors that recognize a wide variety of microbial molecules, called pathogen-associated molecular patterns (PAMPs). Human TLR7 and TLR8 recognize imidazoquinoline compounds (e.g., CL097—CAS n #1026249-18-2) and single stranded RNAs as their natural ligands. Activation of TLRs leads to the production of several cytokines (e.g., IFNα, TNFα, IL-8, IL-6) by the TLR agonist-treated cells, whereas IRAK4 leads to the production of IFNα. Cytokine release is used as readout in this assay and represents a measure for the level of inhibition of the TLR/IRAK-4 pathway by the tested compound. It should be noted that in the context of the complete organism, other sources for these cytokines exist that are not dependent on the TLR/IRAK-4 pathway, such as e.g., macrophages (upon activation of the Fcγ receptor (Yan et al. 2012)) or T cells (upon activation of the T cell receptor (Brehm, Daniels, and Welsh 2005)).
Blood is collected from healthy volunteers into lithium heparin tubes by venipuncture, then gently inverted several times to prevent clotting and incubated for at least 15 min at 37° C. on a rocking mixer shaker. Then, 100 μL of blood is dispensed into polypropylene 96-well microplate and pre-incubated in duplicate with 0.3% DMSO or test compound at different concentrations (from 30 to 0.01 μM, 3-fold dilutions to get 0.3% DMSO at the final) for 15 min at 37° C. After this pre-incubation, blood is triggered with CL097 (2 μg/mL from 1 mg/mL solution in water; InvivoGen, tlr1-c97) for 3 h 30 min at 37° C. Microtubes are centrifuged at 5000×g for 10 min at 4° C. and approximately 40 μL of plasma are collected into a polystyrene 96-well plate. Plasma can be analyzed freshly, within 30 min after triggering, or frozen at −80° C. Finally, the quantification of IFNα and IFNα were performed in the plasma using AlphaLISA Kit for […] according to the manufacturer's instructions and read on the Ensight (PerkinElmer).
For each blood sample, the TNFα concentrations of the samples were determined from the fit. Data were then expressed as a percentage of inhibition (PIN) for each replicate using the formula:
With mean TNFα with CL097=mean TNFα concentration of replicate samples triggered with CL097; TNFαsample1=TNFα concentration of sample 1; mean TNFα with vehicle=mean TNFα concentration of replicate samples treated with vehicle.
Curve fitting for pIC50 determination were generated using mean PIN±sem. Graphs and pIC50 calculations were derived using Prism 5.03 software (GraphPad).

In the next data set the test system is Mouse Hepatocyte. Nature of the data set: Metabolic stability in mouse hepatocytes. The data set is classed as in vitro ADME. The following applies: mouse cryopreserved hepatocytes, 1 μM. As for the experimental part:
(§1) The aim of this assay is to determine the metabolic stability of the compound in hepatocytes (cryopreserved) of different species. Low hepatocyte stability may result in the formation of unwanted metabolites, high clearance, and therefore is not desirable.
(§2) A 10 mM stock solution of test compound in DMSO was first diluted in DMSO to 3 mM, and then in modified Krebs-Henseleit buffer (Sigma, K3753) to 5 μM. This compound dilution was added to a suspension of pooled cryopreserved hepatocytes (BioreclamationIVT) at 37° C. under gentle shaking.
(§3) Final reaction conditions were: 1 μM of test compound, 0.03% DMSO, 0.5 million viable hepatocytes/mL, and 75 μL incubation volume.
(§4) Testosterone (1 μM) and 7-hydroxycoumarin (1 μM) were used, respectively as phase I and phase II metabolic reaction controls.
(§5) After 0, 10, 20, 45, 90, 120 and 180 min of incubation, the reaction was terminated with 225 μL of MeCN:MeOH (2:1) containing 100 ng/mL of diclofenac as analytical internal standard. Samples were mixed, centrifuged and the supernatant analyzed by LC-MS/MS.
(§6) The instrument responses (ratios of test compound and internal standard peak areas) were referenced to the zero time point samples (considered as 100%) in order to determine the percentage of compound remaining.
(§7) Plots of percentage compound remaining were used to determine the intrinsic clearance in the hepatocyte incubations using the following equations:
(§8) Scaled Clint [L/h/kg]=Clint [μL/min/10^6 cells]*#(10) cells/g liver*60*(1/10^6) Scaled Clint unbound [L/h/kg]=Clint [L/h/kg]/Fu,inc where: fu,inc equals hepatocyte binding, derived from microsomal binding (fu,mic) by following equation: […]

A further data set concerns Human Hepatocyte. Put plainly: Metabolic stability in human hepatocytes. It is filed as in vitro ADME. The following applies: human cryopreserved hepatocytes, 1 μM. The method, then:
as §1, §2, §3, §4, §5, §6, §7, §8

The mark [2] stands for this setting: Fasted State Simulated Gastric Fluid (FaSSGF), fassgf or other biorelevant, Fasted State Simulated Gastric Fluid, read-out: Tsol FaSSGF.
Setting [3] is: Fasted State Simulated Intestine Fluid (FaSSIF), fassif, Fasted State Simulated Intestine Fluid, read-out: Tsol FaSSIF.
Setting [4] is: Fed State Simulated Intestine Fluid (FeSSIF), fessif, Fed State Simulated Intestine Fluid, read-out: Tsol FeSSIF.
Where [5] appears, read: Fasted State Simulated Intestine Fluid, 24 h, 37° C.

SMILES strings stand for the structures. pIC50: −log10 of the molar value. In brackets after ≈: the same amount, converted by molar mass. Like-named read-outs stand apart in the source and are kept apart here. Where only a bound is given, the exact number is not on record here.

With `COc1cc2nc(C3COCCO3)cn2cc1NC(=O)c1cccn(C2CC2)c1=O` (racemic) [Compound 1, 1-cyclopropyl-N-[2-(1,4-dioxan-2-yl)-7-methoxy-imidazo[1,2-a]pyridin-6-yl]-2-oxo-pyridine-3-carboxamide], the solubility thermodynamic at 24 h was above 1000 µg/mL in “Thermodynamic solubility” (setting [2]), 28.2 µg/mL (≈ 68.7 µM) in “Thermodynamic solubility” (setting [3]) and above 1000 µg/mL in the data set “Thermodynamic solubility” (setting [4]). Besides, the pIC50 (as a rule, the negative decadic logarithm of the IC50, by convention in mol/L) in data set [1] is 6.30 to 10.00. Moreover, the “Mouse Hepatocyte stability (Perc. remaining at 90 min)” value in the data set with Mouse Hepatocyte worked out at 103.95 Perc. The “Human Hepatocyte stability (Perc. remaining at 90 min)” value in the data set on Human Hepatocyte was 101.5 Perc.
As for `COc1cc2nc(C3COCCO3)cn2cc1NC(=O)c1cccn(C2CC2)c1=O` (single isomer, unassigned) [Compound 7, 1-cyclopropyl-N-[2-(1,4-dioxan-2-yl)-7-methoxy-imidazo[1,2-a]pyridin-6-yl]-2-oxo-pyridine-3-carboxamide], in “Thermodynamic solubility” (Fasted State Simulated Gastric Fluid, 24 h, 37° C.), the “Tsol FaSSGF” value was 958 µg/mL. Also, the “Tsol FaSSIF” value in “Thermodynamic solubility” (setting [5]) was 31.6 µg/mL. Moreover, in the data set “Thermodynamic solubility” (Fed State Simulated Intestine Fluid, 24 h, 37° C.), the “Tsol FeSSIF” value is 117 µg/mL.
As for `COc1cc2nc(C3COCCO3)cn2cc1NC(=O)c1cccn(C2CC2)c1=O` (single isomer, unassigned) [Compound 8, 1-cyclopropyl-N-[2-(1,4-dioxan-2-yl)-7-methoxy-imidazo[1,2-a]pyridin-6-yl]-2-oxo-pyridine-3-carboxamide], the values for the solubility thermodynamic at 24 h in the data set “Thermodynamic solubility” (setting [2]) and in “Thermodynamic solubility” (setting [4]) were 1000 µg/mL (≈ 2440 µM) and 208 µg/mL (≈ 507 µM), respectively. In addition, the “Tsol FaSSIF” value in “Thermodynamic solubility” (setting [5]) is 67.4 µg/mL.
Regarding `COc1cc2nc(C3CCOCC3)cn2cc1NC(=O)c1cccc(C(F)(F)F)n1` [Compound 2, N-(7-methoxy-2-tetrahydropyran-4-yl-imidazo[1,2-a]pyridin-6-yl)-6-(trifluoromethyl)pyridine-2-carboxamide], the solubility thermodynamic at 24 h in “Thermodynamic solubility” (setting [2]) is 1020 µg/mL (≈ 2430 µM); in the data set “Thermodynamic solubility” (setting [3]), 19.3 µg/mL (≈ 45.9 µM).
For `COc1cc2nc(C3CCOCC3)cn2cc1NC(=O)c1cccn(C2CC2)c1=O` [Compound 3, (1-cyclopropyl-N-[7-methoxy-2-(oxan-4-yl)imidazo[1,2-a]pyridin-6-yl]-2-oxopyridine-3-carboxamide)] the same measures were 947 µg/mL (≈ 2320 µM) and 1010 µg/mL (≈ 2480 µM).
For the compound `COc1cc2nc(C3COCCO3)cn2cc1NC(=O)c1cccn(C2CCC2)c1=O` (centres unmarked) [Compound 5, 1-cyclobutyl-N-[2-(1,4-dioxan-2-yl)-7-methoxy-imidazo[1,2-a]pyridin-6-yl]-2-oxo-pyridine-3-carboxamide], in the data set “Thermodynamic solubility” (setting [3]), the solubility thermodynamic at 24 h was 43.9 µg/mL (≈ 103 µM). Moreover, in data set [1], the pIC50 was 5.30 to 6.00.
For the compound `NC(=O)c1cc2nc(C3COCCO3)cn2cc1NC(=O)c1cccc(C(F)(F)F)n1` (centres unmarked) [Compound 6, 2-(1,4-dioxan-2-yl)-6-[[6-(trifluoromethyl)pyridine-2-carbonyl]amino]imidazo[1,2-a]pyridine-7-carboxamide], in “Thermodynamic solubility” (setting [5]), the “Tsol FaSSIF” value is 2.30, 2.30 μg/mL.
With `CNC(=O)c1cc2nc(C3COCCO3)cn2cc1NC(=O)c1cccc(C(F)(F)F)n1` (centres unmarked) [Compound 9, 2-(1,4-dioxan-2-yl)-N-methyl-6-(6-(trifluoromethyl)picolinamido)imidazo[1,2-a]pyridine-7-carboxamide], the solubility thermodynamic at 24 h in “Thermodynamic solubility” (setting [3]) was 6.42 µg/mL (≈ 14.3 µM). In the data set with Mouse Hepatocyte, the “Mouse Hepatocyte stability (Perc. remaining at 90 min)” value worked out at 73.3 Perc. Moreover, the “Human Hepatocyte stability (Perc. remaining at 90 min)” value with Human Hepatocyte stood at 92.1 Perc.
In the case of `CC(F)(F)c1cccc(C(=O)Nc2cn3cc(C4COCCO4)nc3cc2C(N)=O)n1` (centres unmarked) [Compound 11, 6-(6-(1,1-difluoroethyl)picolinamido)-2-(1,4-dioxan-2-yl)imidazo[1,2-a]pyridine-7-carboxamide], the solubility thermodynamic at 24 h was 335 µg/mL (≈ 777 µM) in “Thermodynamic solubility” (setting [2]) and 12.2 µg/mL (≈ 28.3 µM) in the data set “Thermodynamic solubility” (setting [3]). Besides, in data set [1], the pIC50 is 6.30 to 10.00. Further, the “Mouse Hepatocyte stability (Perc. remaining at 90 min)” value with Mouse Hepatocyte is 80.6 Perc. In the data set on Human Hepatocyte, the “Human Hepatocyte stability (Perc. remaining at 90 min)” value came out at 99.15 Perc.
`COc1cc2nc(C3CCS(=O)(=O)CC3)cn2cc1NC(=O)c1cccn(C2CC2)c1=O` [Compound 23, 1-cyclopropyl-N-(2-(1,1-dioxidotetrahydro-2H-thiopyran-4-yl)-7-methoxyimidazo[1,2-a]pyridin-6-yl)-2-oxo-1,2-dihydropyridine-3-carboxamide]: the solubility thermodynamic at 24 h in the data set “Thermodynamic solubility” (setting [4]) is 270 µg/mL (≈ 591 µM). The same compound showed a pIC50 in data set [1] of 6.30 to 10.00.
